Measurements published in PubChem BioAssay (NCI).
Where “and” joins values, the source holds several entries; their conditions need not be identical. Equal entries are not always repeated.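 These data come from cells grown in 96-well plates and exposed to compound for 48 hours at five concentrations. GI50 is the concentration that inhibits growth by half. TGI marks complete inhibition of growth.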

Columns and labels:
Test in all cases: growth of human tumour cells (NCI), 48 h; in the data active means GI50 below about 0.43 µM; inactive means the rest
SR leukemia = test system: SR leukemia
SK-OV-3 ovarian = test system: SK-OV-3 ovarian
T-47D breast = test system: T-47D breast
K-562 leukemia = test system: K-562 leukemia
NCI-H460 lung = test system: NCI-H460 lung
OVCAR-8 ovarian = test system: OVCAR-8 ovarian
HCT-15 colon = test system: HCT-15 colon
MCF7 breast = test system: MCF7 breast
MDA-MB-435 = test system: MDA-MB-435
UO-31 renal = test system: UO-31 renal
MOLT-4 leukemia = test system: MOLT-4 leukemia
PC-3 prostate = test system: PC-3 prostate
SK-MEL-28 melanoma = test system: SK-MEL-28 melanoma
SK-MEL-2 melanoma = test system: SK-MEL-2 melanoma
IGROV1 ovarian = test system: IGROV1 ovarian
KM12 colon = test system: KM12 colon
NCI/ADR-RES ovarian = test system: NCI/ADR-RES ovarian

Cc1cc(NC(=O)NC(=O)c2ccccc2N)ccc1Oc1ncc(Br)cn1
8.31 µM: TGI (HCT-15 colon)
> 30.3 µM: TGI (MOLT-4 leukemia)
> 46.1 µM: TGI (OVCAR-8 ovarian)
0.481 µM: TGI (SK-MEL-2 melanoma)
54.9 µM: TGI (KM12 colon)
> 59.6 µM: TGI (UO-31 renal)
14.3 µM: TGI (NCI-H460 lung)
> 24.4 µM: TGI (T-47D breast)
6.15 µM: TGI (PC-3 prostate)
< 0.0108 µM: TGI (MDA-MB-435)
18.6 µM: TGI (MCF7 breast)
> 100 µM: TGI (K-562 leukemia) | TGI (SK-MEL-28 melanoma)
3.02 µM: TGI (SK-OV-3 ovarian)
24 µM: TGI (IGROV1 ovarian)
> 15.8 µM: TGI (SR leukemia)

CCN(CC)c1ccc(C2SCC(=O)N2c2ccc(NC(=O)c3ccc(N4C(=O)CSC4c4ccc(N(CC)CC)cc4)cc3)cc2)cc1 (stereo unspecified)
> 100 µM: TGI (SK-OV-3 ovarian) | TGI (T-47D breast) | TGI (K-562 leukemia) | TGI (NCI-H460 lung) | TGI (NCI/ADR-RES ovarian) | TGI (OVCAR-8 ovarian) | TGI (HCT-15 colon) | TGI (MCF7 breast) | TGI (MDA-MB-435) | TGI (UO-31 renal) | TGI (MOLT-4 leukemia) | TGI (PC-3 prostate) | TGI (SK-MEL-28 melanoma) | TGI (SK-MEL-2 melanoma) | TGI (IGROV1 ovarian) | TGI (KM12 colon)

COc1cc2nc(-c3cccs3)nc(N3C(c4ccc(O)cc4)=NNC(=O)c4ccccc43)c2cc1OC
67.9 µM: TGI (PC-3 prostate)
> 100 µM: TGI (SK-OV-3 ovarian) | TGI (T-47D breast) | TGI (K-562 leukemia) | TGI (OVCAR-8 ovarian) | TGI (HCT-15 colon) | TGI (MCF7 breast) | TGI (SK-MEL-28 melanoma) | TGI (KM12 colon)
37.4 µM: TGI (UO-31 renal)
58.9 µM: TGI (MDA-MB-435)
44.3 µM: TGI (NCI/ADR-RES ovarian)
60.5 µM: TGI (SK-MEL-2 melanoma)
82.1 µM: TGI (NCI-H460 lung)
97.7 µM: TGI (IGROV1 ovarian)

CN(C(=O)c1ccc(Cl)cc1)C(=S)N1CCN(c2ccccn2)CC1
> 100 µM: TGI (SR leukemia) | TGI (SK-OV-3 ovarian) | TGI (K-562 leukemia) | TGI (NCI-H460 lung) | TGI (OVCAR-8 ovarian) | TGI (HCT-15 colon) | TGI (UO-31 renal) | TGI (MOLT-4 leukemia) | TGI (SK-MEL-28 melanoma) | TGI (SK-MEL-2 melanoma) | TGI (IGROV1 ovarian) | TGI (KM12 colon)

O/N=C/c1cc2c(cc1Br)OCO2
> 100 µM: TGI (SR leukemia) | TGI (SK-OV-3 ovarian) | TGI (K-562 leukemia) | TGI (NCI-H460 lung) | TGI (OVCAR-8 ovarian) | TGI (HCT-15 colon) | TGI (UO-31 renal) | TGI (MOLT-4 leukemia) | TGI (SK-MEL-2 melanoma) | TGI (IGROV1 ovarian) | TGI (KM12 colon)

C=CN1C(=O)OC[C@@H]1c1ccccc1
> 100 µM: TGI (SK-OV-3 ovarian) | TGI (K-562 leukemia) | TGI (NCI-H460 lung) | TGI (OVCAR-8 ovarian) | TGI (HCT-15 colon) | TGI (UO-31 renal) | TGI (MOLT-4 leukemia) | TGI (SK-MEL-28 melanoma) | TGI (SK-MEL-2 melanoma) | TGI (IGROV1 ovarian) | TGI (KM12 colon)

COc1cc(Cl)cc(N(O)C(C)=O)c1OCc1ccccc1
> 100 µM: TGI (SR leukemia) | TGI (SK-OV-3 ovarian) | TGI (K-562 leukemia) | TGI (NCI-H460 lung) | TGI (OVCAR-8 ovarian) | TGI (HCT-15 colon) | TGI (UO-31 renal) | TGI (MOLT-4 leukemia) | TGI (SK-MEL-28 melanoma) | TGI (IGROV1 ovarian) | TGI (KM12 colon)

O=C(Cc1ccccc1)NN1C(=O)C(Cl)C1c1ccc([N+](=O)[O-])cc1 (stereo unspecified)
> 100 µM: TGI (SR leukemia) | TGI (SK-OV-3 ovarian) | TGI (K-562 leukemia) | TGI (NCI-H460 lung) | TGI (OVCAR-8 ovarian) | TGI (HCT-15 colon) | TGI (UO-31 renal) | TGI (MOLT-4 leukemia) | TGI (SK-MEL-28 melanoma) | TGI (SK-MEL-2 melanoma) | TGI (IGROV1 ovarian) | TGI (KM12 colon)

COC(=O)C1=C(C(=O)OC)C2C(C)=CC(C)=CN2C(C#N)=C(SC)S1 (stereo unspecified)
> 100 µM: TGI (SK-OV-3 ovarian) | TGI (NCI-H460 lung)
65.9 µM: TGI (OVCAR-8 ovarian)
41.8 µM: TGI (SK-MEL-28 melanoma)
77.3 µM: TGI (MOLT-4 leukemia)
45.8 µM: TGI (SK-MEL-2 melanoma)
44 µM: TGI (HCT-15 colon)
26.8 µM: TGI (UO-31 renal)
55.3 µM: TGI (K-562 leukemia)
50.5 µM: TGI (SR leukemia)

CCn1c2ccccc2c2ccc3c(c21)C(=O)c1ccccc1C3=O
> 100 µM: TGI (SR leukemia) | TGI (SK-OV-3 ovarian) | TGI (K-562 leukemia) | TGI (OVCAR-8 ovarian) | TGI (HCT-15 colon) | TGI (UO-31 renal) | TGI (MOLT-4 leukemia) | TGI (SK-MEL-28 melanoma) | TGI (IGROV1 ovarian)

COP(=O)(OC)C(=NCc1ccccc1)NNc1ccc([N+](=O)[O-])cc1
56.9 µM: TGI (SR leukemia)
52.9 µM: TGI (SK-MEL-2 melanoma)
> 100 µM: TGI (K-562 leukemia) | TGI (OVCAR-8 ovarian) | TGI (HCT-15 colon) | TGI (SK-MEL-28 melanoma) | TGI (IGROV1 ovarian) | TGI (KM12 colon)
74.8 µM: TGI (MOLT-4 leukemia)
79.3 µM: TGI (NCI-H460 lung)

COc1ccc(C(=O)c2sc(Nc3ccccc3)nc2N)cc1
> 100 µM: TGI (SR leukemia) | TGI (SK-OV-3 ovarian) | TGI (T-47D breast) | TGI (K-562 leukemia) | TGI (NCI-H460 lung) | TGI (NCI/ADR-RES ovarian) | TGI (OVCAR-8 ovarian) | TGI (HCT-15 colon) | TGI (MCF7 breast) | TGI (UO-31 renal) | TGI (MOLT-4 leukemia) | TGI (PC-3 prostate) | TGI (SK-MEL-28 melanoma) | TGI (SK-MEL-2 melanoma) | TGI (IGROV1 ovarian)

COc1c(OC)c(N)c2cc(C)c(=O)c(C)cc2c1N
> 100 µM: TGI (SK-OV-3 ovarian) | TGI (K-562 leukemia) | TGI (NCI-H460 lung) | TGI (OVCAR-8 ovarian) | TGI (HCT-15 colon) | TGI (UO-31 renal) | TGI (MOLT-4 leukemia) | TGI (SK-MEL-2 melanoma) | TGI (IGROV1 ovarian) | TGI (KM12 colon)
45.7 µM: TGI (SR leukemia)

O=C(O)C12C3C4C1C1C2C3C1(Br)C41OCCO1 (stereo unspecified)
> 100 µM: TGI (SK-OV-3 ovarian) | TGI (K-562 leukemia) | TGI (NCI-H460 lung) | TGI (OVCAR-8 ovarian) | TGI (UO-31 renal) | TGI (MOLT-4 leukemia) | TGI (SK-MEL-28 melanoma) | TGI (SK-MEL-2 melanoma) | TGI (IGROV1 ovarian) | TGI (KM12 colon)

COc1cc(C2c3cc4c(cc3[C@@H](NCCN3CCCCC3)C3COC(=O)[C@H]23)OCO4)cc(OC)c1O (stereo partly specified)
7.22 µM and 11.4 µM: TGI (SK-MEL-28 melanoma)
0.0735 µM and 0.0311 µM: TGI (MOLT-4 leukemia)
1.8 µM and 1.99 µM: TGI (UO-31 renal)
1.03 µM and 0.914 µM: TGI (NCI-H460 lung)
2.45 µM and 3.41 µM: TGI (OVCAR-8 ovarian)
2.26 µM and 2.15 µM: TGI (HCT-15 colon)
active: GI50 (NCI-H460 lung) 0.0285 µM
3.8 µM and 3.88 µM: TGI (KM12 colon)
20.8 µM and 18 µM: TGI (K-562 leukemia)
4.56 µM and 7.55 µM: TGI (IGROV1 ovarian)
0.877 µM and 0.484 µM: TGI (SK-OV-3 ovarian)
4.92 µM and 4.65 µM: TGI (SK-MEL-2 melanoma)
